In patent publication US8592572B2, “Liposome containing shRNA molecule targeting a thymidylate synthase and use thereof” (Delta-Fly Pharma, Inc., priority 2011, dated 2013):

What was measured:
MSTO 211H tumor = assay: Antitumor effects of PEG-modified lipoplex upon systemic administration to MSTO 211H cancer-bearing mouse; type: in vivo, BALB/c nu/nu male mice; settings: MSTO 211H tumor-bearing mice; day 21 from beginning of administration; lipoplex 40 μg shRNA i.v. 6 times; pemetrexed 100 mg/kg i.p. 6 times
Description: BALB/c nu/nu male mice were subcutaneously inoculated with a MSTO 211H cell suspension (5×10^6 cells/100 μL). On day 14 from tumor cell inoculation, mice with tumor volumes of 50-100 mm^3 were subjected to an in vivo experiment.
The PEG-modified lipoplex prepared in Example 5 was administered via the mouse caudal vein to the MSTO 211H tumor bearing mice at a dose of 40 μg/200 μL (in terms of the shRNA amount) at 1-day intervals for 6 times in total starting on day 14 after tumor transplantation.
When the existing chemotherapeutic agent, pemetrexed sodium hydrate (Alimta (registered trademark) (Eli Lilly Japan K.K.)), was used in combination with the lipoplex, the agent was intraperitoneally administered 6 times in total (day 1, 2, 3, 8, 9 and 10) with 100 mg/kg starting on day 14 after tumor transplantation.
Carcinostatic activity was determined with tumor growth inhibition rate (TGI) (%) at day 21 from beginning of the administration. The TGI (%) was calculated in the same manner as described in the Example 6.

MSTO 211H cells = assay: Human plura malignant mesothelioma cell proliferation inhibitory effects of shRNA, MTT; type: cell-based; settings: 5 or 10 nM shRNA, in the presence of pemetrexed sodium hydrate 10 ng/mL
Description: The experiment was carried out according to the method described in Example 3, except for using human plura malignant mesothelioma cell line (MSTO 211H) instead of human colorectal carcinoma cell line (DLD-1 or DLD-1/FU) and using pemetrexed sodium hydrate (Alimta (registered trademark) (Eli Lilly Japan K.K.)) instead of 5-FU as an existing chemotherapeutic agent. In the transfection, the final concentration of shRNA per well was either 5 or 10 nM. Pemetrexed sodium hydrate was added to a fresh medium at 10 ng/mL
Cell proliferation rate (%) was calculated in the same manner as described in the Example 3. FIG. 6 show the results.

[1] = system: thymidylate synthase (TS); assay: siRNA and shRNA-induced TS expression inhibition (transfection with Lf RNAi MAX, Western blotting); type: cell-based, human; settings: 1, 5 or 10 nM, 72 hours after transfection
Description: Lipofectamine™ RNAi MAX (hereafter referred to as “Lf RNAi MAX”), which is a cationic liposome, was used as a transfection reagent.
shRNA or siRNA prepared in Example 1 and Lf RNAi MAX were separately diluted with OptiMEM. The resulting solutions were mixed at a ratio of shRNA or siRNA to Lf RNAi MAX of 100 (pmol): 5 (μL). Here, equivalent amounts of the shRNA or siRNA solution and the Lf RNAi MAX solution were used. The obtained liquid mixture was left at room temperature for 10 to 20 minutes, resulting in complex (lipoplex) formation.
Each lipoplex was directly added to a 10-cm dish containing OptiMEM to adjust the total volume to 5 ml. Next, DLD-1 or DLD-1/FU cell suspension (10 ml) was seeded on the dish (500,000 cells/dish) so as to result in a final total volume of 15 ml, followed by transfection. Here, the final concentration of shRNA or siRNA was adjusted to 1, 5, or 10 nM. After the initiation of transfection, culture was carried out in a medium at 37° C. under 5% CO2 for 72 hours. […]
For detection of TS and β-actin, overnight reaction was carried out at 4° C. using the following primary antibodies each diluted with Tween buffer: a mouse monoclonal anti-human TS antibody (1:1000) (ANASPEC, Inc., CA, USA); and a mouse monoclonal anti-human β-actin antibody (1:500) (Bio Vision, Inc., CA, USA). […] The band of each protein of interest was detected on X-ray film.

DLD-1 cells = assay: Cancer cell proliferation inhibitory effects of siRNA and shRNA, MTT, DLD-1; type: cell-based, human; settings: 5 nM siRNA/shRNA, in the presence of 5-FU 0.1 μg/mL
Description: (§1) In this Example, experimentation was performed on a 96-well plate scale. A lipoplex obtained as in the case of Example 2 was directly added to wells containing OptiMEM to adjust the total volume to 50 μl per well. Next, a DLD-1 or DLD-1/FU cell (human colonic intestinal adenocarcinoma cell) suspension (2,000 cells/100 μl) was added to the wells to which the lipoplex had been added (final total volume: 150 μl), followed by transfection. Here, the final concentration of shRNA or siRNA per well was 5 nM.
(§2) The medium was removed from each well 24 hours after the initiation of transfection. A fresh medium containing or not containing an existing chemotherapeutic agent, 5-FU, was added thereto (200 μl per well). Here, 5-FU was added to DLD-1 so as to result in a concentration of 0.1 μg/mL. 5-FU was added to DLD-1/FU so as to result in a concentration of 10 μg/mL. The medium was removed 0, 24, 48, 72, or 96 hours after the addition of the fresh medium. […] Also, the 0.5% MTT solution was added to cell-free wells to obtain a background absorbance.
(§3) After the completion of incubation, acidic isopropanol (150 μl) was added to each well. […] Absorbance was determined at a wavelength of 570 nm using a plate reader. Then, the cell proliferation rate was calculated. […]

DLD-1/FU cells = assay: Cancer cell proliferation inhibitory effects of siRNA and shRNA, MTT, DLD-1/FU; type: cell-based, human; settings: 5 nM siRNA/shRNA, in the presence of 5-FU 10 μg/mL
Description: as §1, §2, §3

| Compound | tumor growth inhibitory effects (TGI) (MSTO 211H tumor) | inhibition of cell proliferation (MSTO 211H cells) | TS expression inhibition ([1]; DLD-1/FU cells) | TS expression inhibition ([1]; DLD-1 cells) | inhibition of cell proliferation (DLD-1 cells) | inhibition of cell proliferation (DLD-1/FU cells) |
| --- | --- | --- | --- | --- | --- | --- |
| Nc1nc2[nH]cc(CCc3ccc(C(=O)N[C@@H](CCC(=O)O)C(=O)O)cc3)c2c(=O)[nH]1 [pemetrexed sodium hydrate] | approximately 28% |  |  |  |  |  |
| shTS: shRNA targeting TS, SEQ ID NO: 8, 5′-GUAACACCAUCGAUCAUGAUAGUGCUCCUGGUUGUCAUGAUCGAUGGUGUUACUU-3′, with two-uracil 3′ overhang (short hairpin RNA, chemistry not given here, further chemistry not given here) |  | significantly inhibited proliferation | significantly inhibit TS expression | significantly inhibit TS expression | significantly inhibited proliferation | significantly inhibited proliferation |
